Test results: paper PMC10606488, “Usnic Acid Derivatives Inhibit DNA Repair Enzymes Tyrosyl-DNA Phosphodiesterases 1 and 2 and Act as Potential Anticancer Agents” (Genes, 2023)
Like-named read-outs stand apart in the source and are kept apart here. Blank lines part the entries; values can stand above or below the molecule they belong to.

Experiments:
[1] = system: HEK293FT Tdp2−/− cells; test: Intrinsic cytotoxicity, MTT test, Tdp2 knockout cells; type: cell-based, human; conditions: 10 μM compound, 3 days
Procedure: (§1) The intrinsic cytotoxicity of the compounds was examined against cell line HEK293FT (human embryonic kidney) with a standard MTT test. The cells were grown in DMEM-F12 medium, with 50 IU/mL penicillin and 50 µg/mL streptomycin (Thermo Fisher Scientific, Waltham, MA, USA) in the presence of 10% fetal bovine serum (Biolot, Saint-Petersburg, Russia) in 5% CO2 atmosphere. Tested compounds were added after formation of a 30–50% monolayer to the medium (1:100 added reagents to the total volume of the culture medium, thus the final concentration of DMSO was 1%) and the cell culture was monitored for 3 days. Control cells were grown in the presence of 1% DMSO. The measurements of cytotoxicity were carried out in three repeats.
We performed a selection of protospacers for human Tdp2 gene knockout with the Benchling CRISPR tool (https://www.benchling.com/) (accessed on 13 February 2020). Two 20-nt protospacer sequences were selected for deletion of exon 6 (PAM sequences in brackets) of the human Tdp2 gene (NM_016614.3): Tdp2-gRNA1 […](AGG) and Tdp2-gRNA2 […](TGG). The scheme of protospacers in the Tdp2 gene is shown on Figure S9A in the Supplementary Materials. Oligonucleotides were cloned in a pSpCas9(BB)-2A-GFP (PX458) plasmid that was a kind gift from Dr. Feng Zhang (Addgene plasmid #48138; http://n2t.net/addgene:48138 (accessed on 13 February 2020), RRID:Addgene_48138) as previously described. Transfection-grade DNA plasmids were isolated with the Plasmid Plus Midi Kit (QIAGEN, Hilden, Germany).
We transfected HEK293FT cells with the constructed plasmids (0.25 µg of each) pX458-Tdp2-gRNA1 and pX458-Tdp2-gRNA2 using Lipofectamine 3000 Reagent (Thermofisher Scientific, Waltham, MA, USA). We used growth medium containing DMEM/F12 (Thermofisher Scientific, MA, USA) 1:1, 10% fetal bovine serum (Thermofisher Scientific, MA, USA), 100 U/mL penicillin–streptomycin (Thermofisher Scientific, MA, USA), and GlutaMAX (1×) (Thermofisher Scientific, Waltham, MA, USA). […]

[2] = target: T1, Recombinant human Tdp2 (Homo sapiens, UniProt O95551); test: Gel-based Tdp2 activity assay; type: biochemical
T1 construct: made in house
T1 sequence (O95551 1-362): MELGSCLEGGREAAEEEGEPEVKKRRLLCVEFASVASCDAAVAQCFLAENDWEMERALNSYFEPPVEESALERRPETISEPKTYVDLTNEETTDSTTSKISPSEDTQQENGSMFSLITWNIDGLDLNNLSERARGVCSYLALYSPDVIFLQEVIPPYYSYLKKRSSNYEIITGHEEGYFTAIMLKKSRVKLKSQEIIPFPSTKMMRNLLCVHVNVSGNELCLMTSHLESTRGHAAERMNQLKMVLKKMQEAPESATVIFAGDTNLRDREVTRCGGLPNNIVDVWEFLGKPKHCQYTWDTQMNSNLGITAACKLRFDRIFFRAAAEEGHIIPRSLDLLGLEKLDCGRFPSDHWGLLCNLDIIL

[3] = system: HEK293FT wild-type cells; test: Intrinsic cytotoxicity, MTT test, wild-type cells; type: cell-based, human; conditions: 10 μM compound, 3 days
Procedure: as §1
Since Tdp inhibitors are intended to be used in therapeutic cocktails, non-toxic concentrations of the compounds are required so as not to exacerbate the already serious side effects of therapy. We studied the intrinsic cytotoxicity of the compounds, (−)-11a,d,h, that inhibited Tdp2 on HEK293FT wild-type cells and Tdp2 knockout (Tdp2^−/−) cells (Figure 3). Tdp2 knockout HEK293FT cells were obtained using the CRISPR/Cas9 method. At 10 μM concentration, the cell survival was not less than 80% for both types of cells. This concentration was chosen for further studies of the ability of the compounds to sensitize the effect of the Top2 inhibitor etoposide.

[4] = system: purified recombinant human Tdp1; conditions: cited from earlier work
[5] = target: tyrosyl-DNA phosphodiesterase 2; conditions: Figure 2; read-out: IC50 (Tdp2); cited from earlier work
[6] = target: T1, Recombinant human Tdp2; parameters: method as in PMID 34768766, PMID 35011303; conditions: Figure 2; cited from earlier work
[7] = Effect of compounds on the cytotoxicity of etoposide, wild-type cells; type: cell-based; conditions: human, HEK293FT wild-type cells; with vehicle (DMSO 1%), HEK293FT WT
Procedure: as §1
(§2) Different concentrations of etoposide and fixed concentrations of usnic acid derivatives 10 μM were used to evaluate the effect of the tested compounds on the cytotoxicity of etoposide.
We studied the effect of Tdp2 inhibitors on the cytotoxic effect of etoposide. The CC50 for etoposide was measured in the presence and absence of compounds. The sensitivity to etoposide in Tdp2 knockout cells was close to wild-type cells (Figure 4a). […] The significance of the differences between the metabolic activity of WT and Tdp2^−/− cells was assessed using the Mann–Whitney test. […]

[8] = Effect of compounds on the cytotoxicity of etoposide, Tdp2 knockout cells; type: cell-based; conditions: human, HEK293FT Tdp2 knockout (Tdp2−/−) cells, with vehicle (DMSO 1%)
Procedure: as §1, §2
We performed a selection of protospacers for human Tdp2 gene knockout with the Benchling CRISPR tool (https://www.benchling.com/) (accessed on 13 February 2020). […]
We studied the effect of Tdp2 inhibitors on the cytotoxic effect of etoposide. The CC50 for etoposide was measured in the presence and absence of compounds. […] The significance of the differences between the metabolic activity of WT and Tdp2^−/− cells was assessed using the Mann–Whitney test. […]

[9] = (−)-usnic acid derivatives, read-out: Tdp1 IC50
[10] = Figure 1, read-out: IC50 (Tdp1)
[11] = (+)-usnic acid derivatives, read-out: Tdp1 IC50
[12] = Figure 2, read-out: IC50 (Tdp1)

IC50 ([2]; (−)-usnic acid derivatives): 9 ± 1 µM
Structure (SMILES): COc1ccc(C=NNc2nc(-c3c(O)c(C)c(O)c4c3OC3=CC(O)=C(C(C)=O)C(=O)C34C)cs2)cc1CN1CCN(c2ccc(F)cc2)CC1 (single isomer, unassigned; (-)) [(−)-11h]
cell survival [1]: not less than 80%
cell survival [3]: not less than 80%
IC50 [4, 9]: 0.059 ± 0.005 µM

Structure (SMILES): CC(=O)C1=C(O)C=C2Oc3c(-c4csc(N/N=C/c5ccc(Br)cc5)n4)c(O)c(C)c(O)c3[C@@]2(C)C1=O [compound 4, reference compound]
IC50 [4, 10]: 0.026 µM

IC50 ([2]; (+)-usnic acid derivatives): > 50 µM
Structure (SMILES): CC(=O)C1=C(O)C=C2Oc3c(-c4csc(NN=Cc5c[nH]c6ccccc56)n4)c(O)c(C)c(O)c3C2(C)C1=O (single isomer, unassigned; (+)) [(+)-11d]
IC50 [4, 11]: 0.026 ± 0.006 µM

Structure (SMILES): NC1=CC(N)=C2C=CC(=O)N=C2C1=O [compound 6]
IC50 [5]: 1.7 µM

IC50 ([2]; (−)-usnic acid derivatives): 8 ± 4 µM
Structure (SMILES): CC(=O)C1=C(O)C=C2Oc3c(-c4csc(NN=Cc5ccc[nH]5)n4)c(O)c(C)c(O)c3C2(C)C1=O (single isomer, unassigned; (-)) [(−)-11a]
cell survival [1]: not less than 80%
cell survival [3]: not less than 80%
IC50 [4, 9]: 0.018 ± 0.001 µM

Structure (SMILES): C[C@H](CCC(=O)NCCc1c[nH]c2ccccc12)[C@H]1CCC2C3CCC4C[C@H](OCc5ccccc5)CC[C@]4(C)C3C[C@H](O)[C@@]21C (stereo partly shown) [compound 8, reference compound]
IC50 [6]: ~1000 µM
IC50 [4, 12]: 0.24 µM

Structure (SMILES): CC(C)=CCC/C(C)=C/COc1ccc2c(-c3ccc(I)cc3)cc(=O)oc2c1 [compound 2, reference compound]
IC50 [4, 10]: 0.62 µM

Structure (SMILES): CC(=O)c1c(O)c(C)c(O)c2c1OC1=CC(=O)/C(=C(/C)NCCCc3cc(C(C)(C)C)c(O)c(C(C)(C)C)c3)C(=O)[C@@]12C [compound 3, reference compound]
IC50 [4, 10]: 0.16 µM

Structure (SMILES): CC(=O)C1=C(O)C=C2Oc3c(C(=O)CSC4=NCCS4)c(O)c(C)c(O)c3[C@@]2(C)C1=O [compound 7, reference compound]
IC50 [6]: ~1000 µM
IC50 [4, 12]: 4.4 µM

IC50 ([2]; (−)-usnic acid derivatives): 6 ± 3 µM
Structure (SMILES): CC(=O)C1=C(O)C=C2Oc3c(-c4csc(NN=Cc5c[nH]c6ccccc56)n4)c(O)c(C)c(O)c3C2(C)C1=O (single isomer, unassigned; (-)) [(−)-11d]
cell survival [1]: not less than 80%
cell survival [3]: not less than 80%
IC50 [4, 9]: 0.057 ± 0.001 µM

IC50 ([2]; (+)-usnic acid derivatives): > 50 µM
Structure (SMILES): COc1ccc(C=NNc2nc(-c3c(O)c(C)c(O)c4c3OC3=CC(O)=C(C(C)=O)C(=O)C34C)cs2)cc1CN1CCN(c2ccc(F)cc2)CC1 (single isomer, unassigned; (+)) [(+)-11h]
IC50 [4, 11]: 0.08 ± 0.007 µM

Structure (SMILES): COc1cc([C@@H]2c3cc4c(cc3[C@@H](O[C@@H]3O[C@@H]5CO[C@@H](C)O[C@H]5[C@H](O)[C@H]3O)[C@H]3COC(=O)[C@H]23)OCO4)cc(OC)c1O [etoposide]
CC50 at 3 days [7]: 2.4 µM
CC50 at 3 days [8]: 2.3 µM

IC50 ([2]; (+)-usnic acid derivatives): > 50 µM
Structure (SMILES): CC(=O)C1=C(O)C=C2Oc3c(-c4csc(NN=Cc5ccc[nH]5)n4)c(O)c(C)c(O)c3C2(C)C1=O (single isomer, unassigned; (+)) [(+)-11a]
IC50 [4, 11]: 0.188 ± 0.003 µM
